From patent US8303989B2, “Compositions and methods for increasing the oral absorption of antimicrobials” (International Health Management Associates, Inc., priority 2000, dated 2012)

Columns and labels:
[1] = Plasma ceftriaxone pharmacokinetics after intravenous administration to rats; type: in vivo, rat; details: i.v. 20 mg CTX/kg, no capmul
Description: These rats were anesthetized with 5.0 mg/100 g of pentobarbital by intraperitoneal injection. […] Blood samples were collected through the jugular vein catheter at predetermined time intervals.
For comparison purposes, about 20 mg/kg of CTX was administered (i.v.) to four rats.

in vivo = details: male, Sprague-Dawley, rat, plasma, other: intraduodenal (i.d.)
Description: (§1) At specific time intervals, 0.6 ml of blood was taken from each rat and centrifuged. About 0.2 ml of the blood plasma was then analyzed for CTX by HPLC.
(§2) To determine absorption from the intestine, male Sprague Dawley rats weighing 250-300 g with free access to water were fasted for about 18 hours prior to the experiment. These rats were anesthetized and maintained with Ketamine/Xlazine ((60 mg/kg)/(80 mg/kg)) by intraperitoneal injection. The small intestine was exposed by a midline abdominal incision. A small incision was made in the stomach to insert a polyethylene tube (i.d. 0.76 mm, o.d. 1.22 mm, Clay Adams) toward the duodenum, which was closed at the exposed end by a stopcock to prevent drainage of drug solution from the duodenum. Ceftriaxone and oral formulations of CTX were dissolved in distilled water to achieve a final concentration of 40 mg CTX eq./kg and injected into the duodenum using the tube. Then 0.2 ml mono- and diglyceride mixture (Capmul) was coadministered into the duodenum using the intraduodenal tube. Blood samples were taken with a heparinized syringe through the jugular vein catheter at predetermined intervals.
(§3) The concentration of ceftriaxone in the plasma was determined by HPLC. Blood samples were centrifuged for 5 min at 5,000 rpm and 0.2 ml of plasma was taken into the microtube. 0.2 ml plasma was diluted by 0.2 ml of distilled water, and then 0.8 ml of acetonitrile was added for protein removal. The resulting suspensions were centrifuged for 10 min at 12,000 rpm and 50 μl of the clear supernatant was used for HPLC analysis. […] Percent bioavailability was calculated as follows: % BA=(AUC i.d./AUC i.v.)×(Dose i.v./Dose i.d.)×100
(§4) As a control, about 40 mg/kg of CTX was i.d. co-administered with 0.2 ml of capmul to four rats. […] At specific time intervals, 0.6 ml of blood was taken from each rat and centrifuged. About 0.2 ml of the blood plasma was then analyzed for CTX by HPLC.

[2] = Plasma ceftriaxone (CTX) pharmacokinetics after intraduodenal (i.d.) administration to rats; details: for BA00 / BA0-4 hr: i.d. 40 mg CTX eq/kg with capmul chase vs i.v. 20 mg CTX/kg
Description: as §1, §2, §3, §4

[3] = Plasma concentration of meropenem in rats after intraduodenal administration; type: in vivo, rat; details: control: meropenem reconstituted per manufacturer, ID catheter, saline flush, no Capmul
Description: Meropenem was infused as a solution through an intraduodenal catheter followed by 0.2 ml. Capmul chase and a saline flush. The carrier formulation was meropenem in calcium-carrageenen to a final concentration of approximately 55% meropenem by weight. Two rats were dosed through a duodenum catheter and plasma samples were collected through 4 hours post dosage. For comparison purposes, a control group received meropenem reconstituted according to the manufacturers instructions, and infused as a solution through ID catheter followed by a saline flush.
Two fasted rats were dosed through a duodenal catheter and plasma samples were collected through 4 hours post dosage. […] A third rat expired prior to dosage, possibly due to anesthesia required for surgery. Rat #1 expired at 4 hours, possibly due to the effects of prolonged anesthesia and blood collection.

[4] = Table 5, rats, i.d. 40 mg CTX eq/kg, 0.2 ml capmul chase
[5] = Table 6, rats, i.d. 40 mg CTX eq/kg, 0.2 ml capmul chase

## CO/N=C(\C(=O)N[C@@H]1C(=O)N2C(C(=O)O)=C(CSc3nc(=O)c(O)nn3C)CS[C@H]12)c1csc(N)n1 [CTX, ceftriaxone]
[1]; Table 5, rats
  AUC00: 188.0 ± 6.4 μghr/ml
[1]; Table 6, rats
  AUC00: 188.0 ± 6.4 μghr/ml
In vivo; 40 mg CTX eq./kg
  concentration at 30 min: 10000 ng/mL
  concentration at 60 min: 11000 ng/mL
  concentration at 90 min: 9000 ng/mL
  concentration at 120 min: 7000 ng/mL
  concentration at 180 min: 6000 ng/mL
  concentration at 240 min: 5000 ng/mL
In vivo; 40 mg CTX eq/kg
  Cmax: 17200 ng/mL
  Tmax: 1 h
[2]; Table 5, rats
  BA00: 13.9%
  BA0-4 hr: 9.4%
[2]; [4]
  AUC00: 52.3 ± 32.4 μghr/ml
  AUG0-4 hr: 31.7 ± 12.4 μghr/ml
[2]; Table 6, rats
  BA00: 13.9%
  BA0-4 hr: 9.4%
[2]; [5]
  AUC00: 52.3 ± 32.4 μghr/ml
  AUC0-4 hr: 31.7 ± 12.4 μghr/ml
  Cmax: 17200 ng/mL

## C[C@@H](O)[C@H]1C(=O)N2C(C(=O)O)=C(S[C@@H]3CN[C@H](C(=O)N(C)C)C3)[C@H](C)[C@H]12 [meropenem]
[3]
  absorption: not absorbed
  blood concentrations: undetectable
